Consider 1 compound from US12263139B2, “Use of cannabidiol in the treatment of tuberous sclerosis complex” (Jazz Pharmaceuticals Research UK Limited, priority 2017, dated 2025).

The test system of one experiment is Panc-1 cells. The experiment in a line: MTT cell viability assay in Panc-1. Conditions: Homo sapiens, 50 μM CBD, 72 h, FIG. 6A, read-out: growth inhibition. The experiment is classed as cell-based. The protocol:
PANC-1 is a human pancreatic carcinoma, epithelial-like cell line; PANC-1 cells are used as an in vitro model of non-endocrine pancreatic cancer for tumorigenicity studies.
Cell viability was analyzed by the MTT [3-(4,5-dimethylthiazol-2-yl)-2,5-diphenyl tetrazolium bromide] assay. Pancreatic cancer cells were seeded onto each well of a 96-well plate. After 72 h of treatment with CBD, MTT solution 5 mg/ml in PBS was added to each well. The plates were then incubated at 37° C. for an additional 4 h to allow MTT to form formazan crystals by reacting with metabolically active cells. The formazan crystals were solubilized in a 1N isopropanol/HCl 10% solution at 37° C., on a shaking table for 20 min. The absorbance values of the solution in each well were measured at 570 nm using a microplate reader. Cell viability was determined by the formula: cell viability (%)=(absorbance of the treated wells−absorbance of the blank control wells)/(absorbance of the negative control wells−absorbance of the blank control wells)×100%. All MTT experiments were performed in triplicate and repeated at least three times.
The growth inhibition induced by different concentrations (0.04-50 μM) of CBD on human Panc-1 at 72 h from the beginning of the treatment was evaluated with MTT assay.

For experiment [1], the system named is Tsc2−/− MEFs. The experiment in a line: Transwell cell migration assay in Tsc2−/− MEFs. The experiment is classed as cell-based, mouse. The settings on record: Tsc2+/+ as control cell; reduction not significant; FIG. 2 (A). As for the experimental part: (§1) (ii) Tsc2−/− p53−/− and Tsc2+/+p53−/− mouse embryonic fibroblast (MEF) cell lines (now referred to as Tsc2−/− and Tsc2+/+, respectively).
Tsc2−/− and Tsc2+/+ cell lines were cultured and maintained in DMEM supplemented with 10% (v/v) FBS and 1% (v/v) penicillin-streptomycin in a humidified incubator (5% CO2 at 37° C.). The AML −/− cell lines were cultured and maintained in DMEM supplemented with 15% (v/v) FBS and 1% (v/v) penicillin-streptomycin in a humidified incubator (5% CO2 at 37° C.). For hypoxia, cells were put into a Binder CB150 hypoxic chamber set at 1% 02 for the indicated time points
(§2) The stock concentration of CBD was made to 20 mM in dimethyl sulfoxide (DMSO). CBD was added to culture media to final concentrations of either 5 μM or 10 μM, as indicated). The final concentration of the DMSO in the cell culture medium was at a maximum level of 0.05% (v/v).
Transwell permeable supports with 6.5 mm diameter inserts, 8.0 μm pore size, and a polycarbonate membrane were used to perform migration assays. Cells were grown in a 75-cm2 flask with standard medium (10% (v/v) FBS) until confluent. […] Cells were counted using a haemocytometer. […] The percentage of adherent cells was then determined by fixing the cells with methanol and acetone (1:1) for 20 minutes at 20° C. […] Crystal Violet stained cells were eluted with 1% (w/v) SDS and the absorbance was read at 550 nm on a Genova MK3 Lifescience.

The conditions of experiment [2]: treatment resistant paediatric epilepsy; cited from earlier work.
Experiment [3] concerns Tsc2−/− MEFs. The experiment in a line: Tumour spheroid growth (soft agar) assay in Tsc2−/− MEFs. The experiment is classed as cell-based, mouse. Conditions: 10 μM CBD. As for the experimental part: as §1, §2
Two-layered soft agar assays were carried out in 6-well plates. All cell lines were plated in complete DMEM media in 0.35% (v/v) agar at (3*10^5) over a 0.6% (v/v) agar layer. The agar was then overlaid with complete DMEM media and spheroids were grown for 14 days at 37° C. in 5% CO2. Media were changed twice a week and new drug was added to media. Pictures were taken using an inverted AMG EVOS microscope equipped with an Olympus camera. Volume of tumour spheroids was measured using ImageJ software.

The conditions of experiment [4]: TSC patients having focal onset seizures; cited from earlier work.
In the next experiment the test system is pS6 positive cells. The experiment in a line: Size of pS6 positive cells in zebrafish model of TSC. The class given is in vivo. From the text:
A zebrafish model of TSC with a tsc2 gene deletion was used. This model has been previously published and validated (Kim et al. 2011). By mating the gene deletion animals with wild-type tsc2+/+ animals, heterozygote (tsc2+/−) zebrafish were also obtained and tested in this example.
For both pS6 and TUNEL staining, non-consecutive sections were imaged using a Zeiss AxioImager microscope. Exposure time was kept constant during image acquisition and determined by the observation of a slide where primary antibody or enzyme solution was omitted. Pictures were taken with a 20× objective, using the AxioVision software, and coloured using Fiji ImageJ. All counting and measuring of cells was done in the original black and white pictures.
Statistical analysis was performed in SPSS (IBM SPSS Statistics 22), except for the chi-square test, which was done using GraphPad Prism 5. Normality and sphericity were tested using the Kolmogorov-Smirnov and Mauchly's tests, respectively. Repeated measures two-way ANOVA tests were used to analyse the locomotor assay data and cell number, while a three-way ANOVA test was used to analyse cell size. Touch response (TR) between genotypes and treatments was analysed by chi-square test. Tests were followed by Tukey or Bonferroni post-hoc tests.

Turning to `C=C(C)[C@@H]1CCC(C)=C[C@H]1c1c(O)cc(CCCCC)cc1O` [CBD, Cannabidiol], the inhibition at 50 µM in the experiment on Panc-1 cells came to 41%. Moreover, the cell migration result with Tsc2−/− MEFs [1] is given as “reduce cell migration to control level”. In experiment [2], the seizure frequency entry is reported as “significant reductions in seizure frequency”. Moreover, in the experiment on Tsc2−/− MEFs [3], the “inhibition of tumour spheroid diameter” value is “Significance to inhibit tumour spheroid diameter was observed”. Also, the “treatment of refractory epilepsy” value in experiment [4] was “beneficial”. Also, the “change in size of pS6 positive cells” value was −20.1% in the experiment on pS6 positive cells (main effect of treatment, compared to Danieau's or DMSO groups, FIG. 5B); −27.6% with pS6 positive cells (tsc2+/− zebrafish, compared to Danieau's, FIG. 5C); −18.1% in the experiment with pS6 positive cells (tsc2+/− zebrafish, compared to the DMSO group, FIG. 5C); −23% in the experiment on pS6 positive cells (tsc2−/− zebrafish, compared to Danieau's, FIG. 5C); −20.8% with pS6 positive cells (tsc2−/− zebrafish, compared to the DMSO group, FIG. 5C). In addition, the “effect on size of pS6 positive cells” value in the experiment on pS6 positive cells (tsc2+/+ zebrafish) was “did not affect cell size”.
